From US6288091A, “Antiherpes virus compounds and methods for their preparation and use” (Boehringer Ingelheim Ltd., priority 1999, dated 2001)
pEC50, pIC50: −log10 of the molar value. Read-outs that look alike come from different tables or passages of the source.

Tests used:
HCMV (strain AD169) = experiment: Inhibition of HCMV replication, plaque reduction assay (PRA, Hs-68 cells); format: cell-based, Human Cytomegalovirus (HCMV); conditions: read-out: PRA CMV EC50
Procedure, shortened: (§1)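 Hs-68 monolayers (80–90% confluent) were infected with ~50 PFU HCMV AD169 for 2 h at 37°, then given compound in DMEM/5% inactivated FBS, refreshed after 4 days and kept 4 more days. Plaques were counted after formaldehyde fixation and crystal violet staining. EC50 derives from percent plaque reduction versus untreated wells.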

[1] = as above; format: cell-based, Human Cytomegalovirus (HCMV); conditions: human
Procedure, shortened: as §1

HSV-1 helicase-primase = target: T1, HSV-1 helicase-primase (Human herpesvirus 1, UniProt P10189+P10236); experiment: HSV-1 DNA-dependent ATPase assay (inhibition of HSV-1 helicase-primase); format: biochemical
T1 construct: made in house; host or cells: Sf21 insect cells triply infected with recombinant baculoviruses (UL5, UL8, UL52)
Procedure, shortened: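 ATP hydrolysis was measured as inorganic phosphate (malachite green/molybdate, 650 nm) after 20 min at 34°. Reaction: 3 μg/mL purified Sf21-expressed UL5/UL8/UL52 helicase-primase, 25 μM single-stranded M13 DNA hybridized to 68-mer, 4 mM ATP, pH 7.5 HEPES buffer, 3.3% DMSO. Net absorbance change with and without inhibitor gave DNA-dependent ATPase activity.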

HSV-1 KOS = experiment: Cutaneous HSV-1 infection in the SKH-1 hairless mouse model, oral administration; format: in vivo; conditions: Human alphaherpesvirus 1, Group 1 Table 1 entries, tid for five days, commencing three hours post infection, in 0.03 N aqueous HCl, read-out: ED50, reduction of viral pathology
Protocol: In addition to the above results, certain Group 1 compounds have been tested against cutaneous HSV-1 infection in the SKH-1 hairless mouse model (P. H. Lee et al., supra). In this instance, viral pathology was monitored using a subjective scoring system and infection was initiated by spreading a viral inoculum (HSV-1 KOS, 7.3×10^7 PFU) over punctured skin.
Still furthermore, oral doses of Entry No.29 of Group 1 at 50 mg/kg/day and 100 mg/kg/day were active in the preceding mouse model when treatment was initiated at 65 h post inoculation. Also, topical treatment of cutaneous HSV-2 infections, namely HG-52 or the acyclovir resistant HSV-2 strain VK-1 (C. S. Crumpacker, New Engl. J. Med., 1989, 320, 293) infections, in the mouse model with the above noted 3% w/w formulation of Entry No. 29 was therapeutically effective, producing a 58 to 72% reduction of viral pathology.

[2] = Human betaherpesvirus 5, AD169, Hs68, Group 1 Table 1 entries
[3] = Group 1 Table 1 entries, read-out: Cytotoxic at this concentration (footnote *, PRA CMV)
[4] = Human betaherpesvirus 5, AD169, Hs68, Group 1 Table 2 entries
[5] = Group 1 Table 2 entries, read-out: Cytotoxic at this concentration (footnote, PRA CMV)
[6] = Group 1 Table 2 entries (Q = CH2)

T1 sequence (P10192 whole entry): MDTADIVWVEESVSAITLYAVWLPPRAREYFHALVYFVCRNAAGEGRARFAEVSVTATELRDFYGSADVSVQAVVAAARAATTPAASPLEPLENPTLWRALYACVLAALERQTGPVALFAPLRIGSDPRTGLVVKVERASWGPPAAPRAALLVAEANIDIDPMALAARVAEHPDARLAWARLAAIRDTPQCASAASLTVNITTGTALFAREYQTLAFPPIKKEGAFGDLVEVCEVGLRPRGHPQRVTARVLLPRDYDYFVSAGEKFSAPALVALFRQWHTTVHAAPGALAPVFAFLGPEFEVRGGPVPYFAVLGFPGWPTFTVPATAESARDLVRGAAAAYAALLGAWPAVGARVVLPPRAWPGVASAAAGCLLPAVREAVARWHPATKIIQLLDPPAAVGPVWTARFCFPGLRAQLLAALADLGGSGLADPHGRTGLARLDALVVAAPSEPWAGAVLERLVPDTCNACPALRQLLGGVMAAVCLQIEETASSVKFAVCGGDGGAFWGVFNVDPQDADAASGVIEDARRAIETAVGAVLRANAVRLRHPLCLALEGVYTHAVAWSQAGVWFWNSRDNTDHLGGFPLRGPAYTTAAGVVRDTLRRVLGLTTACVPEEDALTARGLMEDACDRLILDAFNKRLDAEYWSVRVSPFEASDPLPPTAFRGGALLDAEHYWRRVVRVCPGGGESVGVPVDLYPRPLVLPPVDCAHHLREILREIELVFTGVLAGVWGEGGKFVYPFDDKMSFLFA
T1 sequence (P10236 whole entry): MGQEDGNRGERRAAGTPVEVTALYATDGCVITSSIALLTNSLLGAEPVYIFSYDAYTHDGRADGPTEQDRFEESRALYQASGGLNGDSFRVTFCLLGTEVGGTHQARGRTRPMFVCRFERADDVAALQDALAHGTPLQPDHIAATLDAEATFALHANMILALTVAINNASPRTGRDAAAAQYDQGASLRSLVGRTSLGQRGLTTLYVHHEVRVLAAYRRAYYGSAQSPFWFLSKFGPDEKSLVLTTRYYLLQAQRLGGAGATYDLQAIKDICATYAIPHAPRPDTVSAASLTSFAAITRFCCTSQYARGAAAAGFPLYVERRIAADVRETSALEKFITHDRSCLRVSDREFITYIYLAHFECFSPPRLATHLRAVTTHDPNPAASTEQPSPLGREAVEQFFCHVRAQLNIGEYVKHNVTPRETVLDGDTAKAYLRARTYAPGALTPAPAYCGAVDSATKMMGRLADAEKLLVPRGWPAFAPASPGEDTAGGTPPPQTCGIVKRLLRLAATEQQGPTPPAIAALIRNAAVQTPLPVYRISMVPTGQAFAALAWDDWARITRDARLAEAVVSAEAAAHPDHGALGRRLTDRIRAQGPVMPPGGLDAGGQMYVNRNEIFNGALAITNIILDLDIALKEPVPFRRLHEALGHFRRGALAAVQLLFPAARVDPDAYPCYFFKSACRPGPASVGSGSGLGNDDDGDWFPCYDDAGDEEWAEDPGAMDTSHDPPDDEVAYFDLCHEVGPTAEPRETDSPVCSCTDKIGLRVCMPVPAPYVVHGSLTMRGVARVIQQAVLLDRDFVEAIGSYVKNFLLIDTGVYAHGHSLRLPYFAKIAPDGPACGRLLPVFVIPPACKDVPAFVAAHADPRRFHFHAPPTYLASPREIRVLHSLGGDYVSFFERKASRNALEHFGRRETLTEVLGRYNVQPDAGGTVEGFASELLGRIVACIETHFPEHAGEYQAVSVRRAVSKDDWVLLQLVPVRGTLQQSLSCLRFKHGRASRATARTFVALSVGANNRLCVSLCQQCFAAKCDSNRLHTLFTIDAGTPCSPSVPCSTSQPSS
T1 sequence (P10189 whole entry): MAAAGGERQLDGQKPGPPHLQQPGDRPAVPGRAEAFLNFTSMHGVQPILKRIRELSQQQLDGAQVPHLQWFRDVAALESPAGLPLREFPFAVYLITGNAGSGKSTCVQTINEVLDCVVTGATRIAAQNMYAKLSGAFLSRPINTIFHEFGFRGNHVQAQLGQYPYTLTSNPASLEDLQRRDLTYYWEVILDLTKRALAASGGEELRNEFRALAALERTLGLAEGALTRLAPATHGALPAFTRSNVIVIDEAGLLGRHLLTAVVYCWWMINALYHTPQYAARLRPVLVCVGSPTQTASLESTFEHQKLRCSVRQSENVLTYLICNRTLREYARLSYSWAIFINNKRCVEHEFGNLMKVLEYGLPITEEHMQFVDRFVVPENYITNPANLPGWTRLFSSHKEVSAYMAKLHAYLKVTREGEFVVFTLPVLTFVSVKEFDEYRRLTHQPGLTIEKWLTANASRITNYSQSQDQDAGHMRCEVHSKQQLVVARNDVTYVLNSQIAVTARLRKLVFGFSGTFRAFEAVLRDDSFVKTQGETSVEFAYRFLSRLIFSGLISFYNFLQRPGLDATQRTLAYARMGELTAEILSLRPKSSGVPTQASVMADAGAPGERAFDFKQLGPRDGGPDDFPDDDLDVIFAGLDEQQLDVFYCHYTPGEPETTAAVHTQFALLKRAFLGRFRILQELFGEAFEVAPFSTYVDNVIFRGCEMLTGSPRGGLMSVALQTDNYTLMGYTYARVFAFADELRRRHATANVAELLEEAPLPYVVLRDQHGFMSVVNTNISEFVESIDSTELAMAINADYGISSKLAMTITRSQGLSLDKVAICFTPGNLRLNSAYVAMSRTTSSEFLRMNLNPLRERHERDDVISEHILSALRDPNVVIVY

SMILES | pEC50 (HCMV (strain AD169); [2]) | MCC at 192 h [1, 3] | pIC50 (HSV-1 helicase-primase; Group 1 Table 1 entries) | pEC50 (HCMV (strain AD169); [4]) | MCC at 192 h [1, 5] | pIC50 (HSV-1 helicase-primase; [6]) | ED50 (HSV-1 KOS)
Nc1nc(-c2ccc(NC(=O)CNCCCc3ccccc3)cc2)cs1 [Example 3] | < 4.85 | 14 µM | 5.12 |  |  |  | 
Nc1nc(-c2ccc(NC(=O)CCNCc3cccc(F)c3)cc2)cs1 [Example 4] |  |  |  | < 5.43 | 3.7 µM | 5.28 | 
Nc1nc(-c2ccc(NC(=O)CCN(Cc3ccccc3)C(=O)C3CCCCC3)cc2)cs1 [Example 8] |  |  |  | 4.89 | 13 µM | 5.77 | 
C[C@H](NCC(=O)Nc1ccc(-c2csc(N)n2)cc1)c1ccccc1 [Example 10] | < 4.52 | 30 µM | 5.16 |  |  |  | 
Nc1nc(-c2ccc(NC(=O)CCNC3Cc4ccccc4C3)cc2)cs1 [Example 10] |  |  |  | 4.85 | 14 µM | 4.68 | 
Nc1nc(-c2ccc(NC(=O)CCN(Cc3ccccc3)C(=O)OCc3ccccc3)cc2)cs1 [Example 16] |  |  |  | 5.10 | 8 µM | 5.74 | 
CN(CC(=O)Nc1ccc(-c2csc(N)n2)cc1)C(=O)c1ccncc1 [Example 22] | 3.96 | 110 µM | 5.23 |  |  |  | 
Nc1nc(-c2ccc(NC(=O)CCNCC3CCCCC3)cc2)cs1 [Example 22] |  |  |  | < 5.22 | 6 µM | 4.54 | 
CCCC(CCC)NCCC(=O)Nc1ccc(-c2csc(N)n2)cc1 [Example 23] |  |  |  | < 5.05 | 9 µM | 4.35 | 
Nc1nc(-c2ccc(NC(=O)CN(Cc3ccccc3)C(=O)c3ccccn3)cc2)cs1 [Example 27] | < 4.44 | 36 µM | 6.00 |  |  |  | 
Nc1nc(-c2ccc(NC(=O)CN(Cc3ccccc3)C(=O)c3ccncc3)cc2)cs1 [Example 29] | 4.57 |  | 6.62 |  |  |  | 56 mg/kg
Nc1nc(-c2ccc(NC(=O)CN(Cc3ccccc3)C(=O)C3CCCC3)cc2)cs1 [Example 36] | 4.80 |  | 7.39 |  |  |  | 51 mg/kg
Nc1nc(-c2ccc(NC(=O)CN(Cc3ccncc3)C(=O)C3CCCCC3)cc2)cs1 [Example 49, N-{2-{{4-(2-amino-4-thiazolyl)phenyl}amino}-2-oxoethyl}-N-(4-pyridinylmethyl)cyclohexanecarboxamide] | 4.64 |  | 7.43 |  |  |  | 129 mg/kg
C[C@@H](c1ccccc1)N(CC(=O)Nc1ccc(-c2csc(N)n2)cc1)C(=O)c1ccncc1 [Example 58] | 4.52 |  | 6.72 |  |  |  | 31 mg/kg
Nc1nc(-c2ccc(NC(=O)CN(CC3CCCCC3)C(=O)C3CCCC3)cc2)cs1 [Example 63] | < 4.68 | 21 µM | 6.11 |  |  |  | 
CCCC(CCC)N(CC(=O)Nc1ccc(-c2csc(N)n2)cc1)C(=O)C1CCCCC1 [Example 82] | 5.15 | 7 µM | 6.21 |  |  |  | 
Nc1nc(-c2ccc(NC(=O)CN(Cc3ccccc3)S(=O)(=O)c3ccccc3)cc2)cs1 [Example 97] | 4.82 |  | 6.51 |  |  |  | 
CCC(CC)C(=O)N(CC(=O)Nc1ccc(-c2csc(N)n2)cc1)Cc1ccccc1 [Example 104] | < 4.74 | 18 µM | 7.11 |  |  |  | 
CN(C)CCN(CC(=O)Nc1ccc(-c2csc(N)n2)cc1)C(=O)C1CCCCC1 [Example 140] | 4.54 |  | 4.32 |  |  |  | 
